Test results reported in US20090075951A1, “Methods and Reagents for the Treatment of Inflammatory Disorders” (CombinatoRx, Inc., priority 2003, published 2009).
Read-outs that look alike come from different tables or passages of the source.

Legend:
[1] = system: TNFα secretion from PMA/ionomycin stimulated white blood cells from human buffy coat; assay: TNFα secretion assay, PMA/ionomycin stimulation
Experimental: (§1) Various concentrations of each test compound were added at the time of stimulation. […] After the plate was washed with 0.1% Tween 20/PBS, an HRP-luminescent substrate was added to each well and light intensity measured using a LJL Analyst plate luminometer.

[2] = system: TNFα secretion from LPS stimulated white blood cells from human buffy coat; assay: TNFα secretion assay, LPS stimulation; conditions: Homo sapiens, read-out: percent inhibition of TNFα secretion, LPS; for inhibition at 0.008 µM: Prednisolone 0.008 μM; for inhibition at 0.5 µM: Prednisolone 0.5 μM; for inhibition at 1 µM: Prednisolone 1 μM
Experimental: as §1

[3] = Amoxapine μM r5-r13: 0,0.25,0.5,1,2,4,8,16,32
[4] = Clomipramine μM r5-r13: 0,0.45,0.89,1.8,3.6,7.1,14,28,57
[5] = Desipramine μM r5-r13: 0,0.5,1,2,4,8,16,32,64
[6] = Fluoxetine μM r5-r13: 0,0.23,0.45,0.9,1.8,3.6,7.2,14,29
[7] = Loxapine μM r5-r13: 0,0.35,0.7,1.4,2.8,5.6,11,22,45
[8] = Norclozapine μM r5-r13: 0,0.21,0.41,0.83,1.7,3.3,6.6,13,27
[9] = Nortriptyline μM r5-r13: 0,0.52,1,2.1,4.2,8.3,17,33,67

Molecule `C[C@]12C=CC(=O)C=C1CC[C@@H]1[C@@H]2[C@@H](O)C[C@@]2(C)[C@H]1CC[C@]2(O)C(=O)CO` [Prednisolone, prednisolone] has an inhibition at 0.01 µM ([1]; read-out: inhibition of TNFα secretion, Prednisolone 10 nM, Desipramine nM: 0, 50, 200, 799, 3197, 13000) of -0.66%, an inhibition at 0.01 µM ([1]; read-out: inhibition of TNFα secretion, Prednisolone 10 nM, Imipramine nM: 0, 99, 394, 1578, 6311, 25000) of 0.037% and an inhibition at 0.01 µM ([1]; read-out: inhibition of TNFα secretion, Prednisolone 10 nM, Nortriptyline nM: 0, 52, 208, 834, 3336, 13000) of 4.27%. For the same molecule, the inhibition at 0.01 µM ([1]; read-out: inhibition of TNFα secretion, Prednisolone 10 nM, Protriptyline nM: 0, 52, 208, 834, 3336, 13000) was 0.0342%, the inhibition at […] ([1]; read-out: inhibition of TNFα secretion, Prednisolone 42 nM, Desipramine nM: 0, 50, 200, 799, 3197, 13000) was 3.62% and the inhibition at […] ([1]; read-out: inhibition of TNFα secretion, Prednisolone 42 nM, Imipramine nM: 0, 99, 394, 1578, 6311, 25000) was 5.58%. It also gave an inhibition at […] ([1]; read-out: inhibition of TNFα secretion, Prednisolone 42 nM, Nortriptyline nM: 0, 52, 208, 834, 3336, 13000) of 7.41%, an inhibition at 2.656 µM ([1]; read-out: inhibition of TNFα secretion, Prednisolone 2656 nM, Desipramine nM: 0, 50, 200, 799, 3197, 13000) of 38.8% and an inhibition at 2.656 µM ([1]; read-out: inhibition of TNFα secretion, Prednisolone 2656 nM, Imipramine nM: 0, 99, 394, 1578, 6311, 25000) of 40.5%. For the same molecule, the inhibition at 2.656 µM ([1]; read-out: inhibition of TNFα secretion, Prednisolone 2656 nM, Nortriptyline nM: 0, 52, 208, 834, 3336, 13000) was 38.3%, the inhibition at 2.656 µM ([1]; read-out: inhibition of TNFα secretion, Prednisolone 2656 nM, Protriptyline nM: 0, 52, 208, 834, 3336, 13000) was 45.2% and the inhibition at 0.008 µM ([1]; read-out: percent inhibition of TNFα secretion, PMA/ionomycin, Prednisolone 0.008 μM, Amoxapine μM r5-r13: 0,0.25,0.5,1,2,4,8,16,32) was -2.11%. For the same molecule, the inhibition at 0.008 µM ([1]; read-out: percent inhibition of TNFα secretion, PMA/ionomycin, Prednisolone 0.008 μM, Norclozapine μM r5-r13: 0,0.21,0.41,0.83,1.7,3.3,6.6,13,27) was 17%, the inhibition at 0.008 µM ([1]; read-out: percent inhibition of TNFα secretion, PMA/ionomycin, Prednisolone 0.008 μM, Nortriptyline μM r5-r13: 0,0.52,1,2.1,4.2,8.3,17,33,67) was 9.54% and the inhibition at 0.5 µM ([1]; read-out: percent inhibition of TNFα secretion, PMA/ionomycin, Prednisolone 0.5 μM, Amoxapine μM r5-r13: 0,0.25,0.5,1,2,4,8,16,32) was 25%. The inhibition at 0.5 µM ([1]; read-out: percent inhibition of TNFα secretion, PMA/ionomycin, Prednisolone 0.5 μM, Norclozapine μM r5-r13: 0,0.21,0.41,0.83,1.7,3.3,6.6,13,27) was 44%, the inhibition at 0.5 µM ([1]; read-out: percent inhibition of TNFα secretion, PMA/ionomycin, Prednisolone 0.5 μM, Nortriptyline μM r5-r13: 0,0.52,1,2.1,4.2,8.3,17,33,67) was 29.2% and the inhibition at 1 µM ([1]; read-out: percent inhibition of TNFα secretion, PMA/ionomycin, Prednisolone 1 μM, Amoxapine μM r5-r13: 0,0.25,0.5,1,2,4,8,16,32) was 29.5%. For the same molecule, the inhibition at 1 µM ([1]; read-out: percent inhibition of TNFα secretion, PMA/ionomycin, Prednisolone 1 μM, Nortriptyline μM r5-r13: 0,0.52,1,2.1,4.2,8.3,17,33,67) was 38.5%, the inhibition at 0.008 µM ([1]; read-out: percent inhibition of TNFα secretion, Prednisolone 0.008 μM, Clomipramine μM 0, 0.45, 0.89, 1.8, 3.6, 7.1, 14, 28, 57) was 7.57% and the inhibition at 0.008 µM ([1]; read-out: percent inhibition of TNFα secretion, Prednisolone 0.008 μM, Desipramine μM 0, 0.5, 1, 2, 4, 8, 16, 32, 64) was 3.11%. For the same molecule, the inhibition at 0.008 µM ([1]; read-out: percent inhibition of TNFα secretion, Prednisolone 0.008 μM, Fluoxetine μM by grid row: r5 0, r6 0.23, r7 0.45, r8 0.9, r9 1.8, r10 3.6, r11 7.2, r12 14, r13 29) was 6.63%, the inhibition at 0.008 µM ([1]; read-out: percent inhibition of TNFα secretion, Prednisolone 0.008 μM, Loxapine μM 0, 0.35, 0.7, 1.4, 2.8, 5.6, 11, 22, 45) was 3.36% and the inhibition at 0.01 µM ([1]; read-out: percent inhibition of TNFα secretion, Prednisolone 10 nM, Amitriptyline nM: 0, 50, 199, 796, 3186, 13000) was -1.26%. For the same molecule, the inhibition at 0.01 µM ([1]; read-out: percent inhibition of TNFα secretion, Prednisolone 10 nM, Amoxapine nM: 0, 12, 50, 199, 797, 3187) was 1.28%, the inhibition at 0.01 µM ([1]; read-out: percent inhibition of TNFα secretion, Prednisolone 10 nM, Clomipramine nM: 0, 45, 178, 712, 2848, 11000) was 0.29% and the inhibition at […] ([1]; read-out: percent inhibition of TNFα secretion, Prednisolone 42 nM, Amitriptyline nM: 0, 50, 199, 796, 3186, 13000) was 7.27%. It also gave an inhibition at […] ([1]; read-out: percent inhibition of TNFα secretion, Prednisolone 42 nM, Amoxapine nM: 0, 12, 50, 199, 797, 3187) of 7.71%, an inhibition at […] ([1]; read-out: percent inhibition of TNFα secretion, Prednisolone 42 nM, Clomipramine nM: 0, 45, 178, 712, 2848, 11000) of 6.83% and an inhibition at 0.5 µM ([1]; read-out: percent inhibition of TNFα secretion, Prednisolone 0.5 μM, Clomipramine μM 0, 0.45, 0.89, 1.8, 3.6, 7.1, 14, 28, 57) of 33.4%. The inhibition at 0.5 µM ([1]; read-out: percent inhibition of TNFα secretion, Prednisolone 0.5 μM, Desipramine μM 0, 0.5, 1, 2, 4, 8, 16, 32, 64) was 32.6%, the inhibition at 0.5 µM ([1]; read-out: percent inhibition of TNFα secretion, Prednisolone 0.5 μM, Fluoxetine μM by grid row: r5 0, r6 0.23, r7 0.45, r8 0.9, r9 1.8, r10 3.6, r11 7.2, r12 14, r13 29) was 39.3% and the inhibition at 0.5 µM ([1]; read-out: percent inhibition of TNFα secretion, Prednisolone 0.5 μM, Loxapine μM 0, 0.35, 0.7, 1.4, 2.8, 5.6, 11, 22, 45) was 31%. The inhibition at 1 µM ([1]; read-out: percent inhibition of TNFα secretion, Prednisolone 1 μM, Clomipramine μM 0, 0.45, 0.89, 1.8, 3.6, 7.1, 14, 28, 57) was 37.5%, the inhibition at 1 µM ([1]; read-out: percent inhibition of TNFα secretion, Prednisolone 1 μM, Desipramine μM 0, 0.5, 1, 2, 4, 8, 16, 32, 64) was 35.2% and the inhibition at 1 µM ([1]; read-out: percent inhibition of TNFα secretion, Prednisolone 1 μM, Fluoxetine μM by grid row: r5 0, r6 0.23, r7 0.45, r8 0.9, r9 1.8, r10 3.6, r11 7.2, r12 14, r13 29) was 30.6%. The inhibition at 1 µM ([1]; read-out: percent inhibition of TNFα secretion, Prednisolone 1 μM, Loxapine μM 0, 0.35, 0.7, 1.4, 2.8, 5.6, 11, 22, 45) was 34.8%, the inhibition at 2.656 µM ([1]; read-out: percent inhibition of TNFα secretion, Prednisolone 2656 nM, Amitriptyline nM: 0, 50, 199, 796, 3186, 13000) was 41.6% and the inhibition at 2.656 µM ([1]; read-out: percent inhibition of TNFα secretion, Prednisolone 2656 nM, Amoxapine nM: 0, 12, 50, 199, 797, 3187) was 39%. For the same molecule, the inhibition at 2.656 µM ([1]; read-out: percent inhibition of TNFα secretion, Prednisolone 2656 nM, Clomipramine nM: 0, 45, 178, 712, 2848, 11000) was 42.1%, the inhibition at 0.008 µM [2, 3] was 3.67% and the inhibition at 0.008 µM [2, 4] was 2.55%. For the same molecule, the inhibition at 0.008 µM [2, 5] was 4.87%, the inhibition at 0.008 µM [2, 6] was 1.18% and the inhibition at 0.008 µM [2, 7] was 4.44%. For the same molecule, the inhibition at 0.008 µM [2, 8] was 18%, the inhibition at 0.008 µM [2, 9] was 0.348% and the inhibition at 0.5 µM [2, 3] was 59.1%. It also gave an inhibition at 0.5 µM [2, 4] of 64.8%, an inhibition at 0.5 µM [2, 5] of 57.6% and an inhibition at 0.5 µM [2, 6] of 63.9%. The inhibition at 0.5 µM [2, 7] was 68.8%, the inhibition at 0.5 µM [2, 8] was 79% and the inhibition at 0.5 µM [2, 9] was 51.9%. The inhibition at 1 µM [2, 3] was 66.2%, the inhibition at 1 µM [2, 4] was 66.9% and the inhibition at 1 µM [2, 5] was 59.1%. The inhibition at 1 µM [2, 6] was 71%, the inhibition at 1 µM [2, 7] was 68.7% and the inhibition at 1 µM [2, 8] was 83%. For the same molecule, the inhibition at 1 µM [2, 9] was 53.4%.
